Assay results from patent publication US20080103205A1, “Pesticidal compositions and methods of use” (priority 2006, published 2008).
Like-named read-outs stand apart in the source and are kept apart here.

Key:
Caenorhabditis elegans = assay: Toxicity test, adult Caenorhabditis elegans, 96 well micro plate; type: in vivo; details: Caenorhabditis elegans
Description: (§1) Methodology: Toxicity tests were conducted using J2 juveniles of Meloidogyne incognita adult Caenorhabditis elegans collected from nematode-infested tomato plant roots and culture Petri plates, respectively. Test concentrations of 50, 100, 200, 300, or 400 ppm were prepared in 0.2% dimethylsulfoxide (DMSO) in tap water. Aliquots (300 microliters (ul)) were applied to a 96 well micro plate and a 20 ul aqueous solution containing nematodes was added. The number of nematodes in 20 ul ranged from 17 to 30. Micro plates were sealed with Parafilm™ and incubated at room temperature. Similar tests conducted with 0.2% DMSO in tap water served as controls. Nematode mortality was checked at 24, 48, 72, 120, and 168 hr after incubation. Nematodes that were motionless for 30 sec when observed under a stereomicroscope were considered paralyzed and included in mortality counts. Each concentration was replicated five times and mean percent mortality was calculated after correcting for control mortality using Abbott's formula.
(§2) Data Analysis: Mortality data were analyzed using PROC PROBIT (SAS) program and LC50 values were estimated.

Meloidogyne incognita = assay: Toxicity test, J2 juveniles of Meloidogyne incognita, 96 well micro plate; type: in vivo; details: Meloidogyne incognita
Description: as §1, §2

[1] = 24 h, read-out: Corrected Mortality (%)
[2] = 48 h, read-out: Corrected Mortality (%)
[3] = 72 h, read-out: Corrected Mortality (%)
[4] = 120 h, read-out: Corrected Mortality (%)
[5] = 168 h, read-out: Corrected Mortality (%)

## CC1(C2CCCC2)Cc2cc(OCC(=O)O)c(Cl)c(Cl)c2C1=O (single isomer, unassigned; (+)) [IAA-94, (+)(2-cyclopentyl-6,7-dichloro-2-methyl-1-oxo-5-indanyloxy) acetic acid]
Caenorhabditis elegans; 24 h
  mortality at 50 ppm: 8%
  mortality at 100 ppm: 14%
  mortality at 200 ppm: 17%
  mortality at 300 ppm: 21%
  mortality at 400 ppm: 24%
Caenorhabditis elegans; [1]
  mortality at 50 ppm: 5%
  mortality at 100 ppm: 11%
  mortality at 200 ppm: 14%
  mortality at 300 ppm: 19%
  mortality at 400 ppm: 22%
Caenorhabditis elegans; 48 h
  mortality at 50 ppm: 17%
  mortality at 100 ppm: 29%
  mortality at 200 ppm: 38%
  mortality at 300 ppm: 43%
  mortality at 400 ppm: 48%
Caenorhabditis elegans; [2]
  mortality at 50 ppm: 13%
  mortality at 100 ppm: 25%
  mortality at 200 ppm: 35%
  mortality at 300 ppm: 40%
  mortality at 400 ppm: 45%
Caenorhabditis elegans; 72 h
  mortality at 50 ppm: 35%
  mortality at 100 ppm: 44%
  mortality at 200 ppm: 64%
  mortality at 300 ppm: 71%
  mortality at 400 ppm: 77%
Caenorhabditis elegans; [3]
  mortality at 50 ppm: 31%
  mortality at 100 ppm: 40%
  mortality at 200 ppm: 62%
  mortality at 300 ppm: 69%
  mortality at 400 ppm: 76%
Caenorhabditis elegans; 120 h
  mortality at 50 ppm: 58%
  mortality at 100 ppm: 70%
  mortality at 200 ppm: 90%
  mortality at 300 ppm: 94%
  mortality at 400 ppm: 98%
Caenorhabditis elegans; [4]
  mortality at 50 ppm: 53%
  mortality at 100 ppm: 67%
  mortality at 200 ppm: 89%
  mortality at 300 ppm: 93%
  mortality at 400 ppm: 98%
Caenorhabditis elegans; 168 h
  mortality at 50 ppm: 81%
  mortality at 100 ppm: 94%
  mortality at 200 ppm: 99%
  mortality at 300 ppm: 100%
  mortality at 400 ppm: 100%
Caenorhabditis elegans; [5]
  mortality at 50 ppm: 78%
  mortality at 100 ppm: 93%
  mortality at 200 ppm: 99%
  mortality at 300 ppm: 100%
  mortality at 400 ppm: 100%
Meloidogyne incognita; 24 h
  mortality at 50 ppm: 8%
  mortality at 100 ppm: 10%
  mortality at 200 ppm: 14%
  mortality at 300 ppm: 20%
  mortality at 400 ppm: 24%
Meloidogyne incognita; [1]
  mortality at 50 ppm: 5%
  mortality at 100 ppm: 7%
  mortality at 200 ppm: 11%
  mortality at 300 ppm: 19%
  mortality at 400 ppm: 22%
Meloidogyne incognita; 48 h
  mortality at 50 ppm: 17%
  mortality at 100 ppm: 22%
  mortality at 200 ppm: 34%
  mortality at 300 ppm: 38%
  mortality at 400 ppm: 43%
Meloidogyne incognita; [2]
  mortality at 50 ppm: 12%
  mortality at 100 ppm: 17%
  mortality at 200 ppm: 30%
  mortality at 300 ppm: 34%
  mortality at 400 ppm: 39%
Meloidogyne incognita; 72 h
  mortality at 50 ppm: 30%
  mortality at 100 ppm: 38%
  mortality at 200 ppm: 61%
  mortality at 300 ppm: 65%
  mortality at 400 ppm: 70%
Meloidogyne incognita; [3]
  mortality at 50 ppm: 22%
  mortality at 100 ppm: 31%
  mortality at 200 ppm: 57%
  mortality at 300 ppm: 61%
  mortality at 400 ppm: 67%
Meloidogyne incognita; 120 h
  mortality at 50 ppm: 51%
  mortality at 100 ppm: 61%
  mortality at 200 ppm: 83%
  mortality at 300 ppm: 90%
  mortality at 400 ppm: 97%
Meloidogyne incognita; [4]
  mortality at 50 ppm: 45%
  mortality at 100 ppm: 56%
  mortality at 200 ppm: 81%
  mortality at 300 ppm: 89%
  mortality at 400 ppm: 97%
Meloidogyne incognita; 168 h
  mortality at 50 ppm: 74%
  mortality at 100 ppm: 85%
  mortality at 200 ppm: 99%
  mortality at 300 ppm: 100%
  mortality at 400 ppm: 100%
Meloidogyne incognita; [5]
  mortality at 50 ppm: 71%
  mortality at 100 ppm: 83%
  mortality at 200 ppm: 99%
  mortality at 300 ppm: 100%
  mortality at 400 ppm: 100%
